The values below come from US8987276B2, “Substituted triazolyl piperazine and triazolyl piperidine derivatives as gamma secretase modulators” (Janssen Pharmaceuticals, Inc., priority 2011, dated 2015).

In data set [1] the test system is Aβ42. Put plainly: Screening for γ-secretase-modulating activity: Aβ42 in supernatant of SKNBE2 cells carrying APP 695-wild type (Alphalisa). Format: cell-based. The note with it: Homo sapiens, overnight incubation, cell supernatant. The procedure:
(§1) Screening was carried out using SKNBE2 cells carrying the APP 695-wild type, grown in Dulbecco's Modified Eagle's Medium/Nutrient mixture F-12 (DMEM/NUT-mix F-12) (HAM) provided by Invitrogen (cat no. 10371-029) containing 5% Serum/Fe supplemented with 1% non-essential amino acids, 1-glutamine 2 mM, Hepes 15 mM, penicillin 50 U/ml (units/ml) en streptomycin 50 µg/ml. Cells were grown to near confluency.
(§2) The screening was performed using a modification of the assay as described in Citron et al (1997) Nature Medicine 3: 67. Briefly, cells were plated in a 384-well plate at 10^4 cells/well in Ultraculture (Lonza, BE12-725F) supplemented with 1% glutamine (Invitrogen, 25030-024), 1% non-essential amino acid (NEAA), penicillin 50 U/ml en streptomycin […] in the presence of test compound at different test concentrations. The cell/compound mixture was incubated overnight at 37° C., 5% CO2. The next day the media were assayed by two sandwich immuno-assays, for Aβ42 and Aβtotal.
(§3) Aβtotal and Aβ42 concentrations were quantified in the cell supernatant using the Aphalisa technology (Perkin Elmer). Alphalisa is a sandwich assay using biotinylated antibody attached to streptavidin coated donorbeads and antibody conjugated to acceptor beads. In the presence of antigen, the beads come into close proximity. The excitation of the donor beads provokes the release of singlet oxygen molecules that trigger a cascade of energy transfer in the acceptor beads, resulting in light emission.
(§4) To quantify the amount of Aβ42 in the cell supernatant, monoclonal antibody specific to the C-terminus of Aβ42 (JRF/cAB42/26) was coupled to the receptor beads and biotinylated antibody specific to the N-terminus of Aβ (JRF/ABN/25) was used to react with the donor beads. T quantify the amount of Aβtotal in the cell supernatant, monoclonal antibody specifc to the N-terminus of Aβ (JRF/AβN/25) was coupled to the receptor beads and biotinylated antibody specific to the mid region of Aβ (biotinylated 4G8) was used to react with the donor beads.
(§5) To obtain the values reported in Table 3, the data are calculated as percentage of the maximum amount of amyloid Beta 42 measured in the absence of the test compound. The sigmoidal dose response curves were analyzed using non-linear regression analysis with percentage of the control plotted against the log concentration of the compound. A 4-parameter equation was used to determine the IC50.

The subject of data set [2] is Aβtotal. Description: Screening for γ-secretase-modulating activity: Aβtotal in supernatant of SKNBE2 cells carrying APP 695-wild type (Alphalisa). The note with it: Homo sapiens, overnight incubation, cell supernatant. Type of data set: cell-based. Here is the method:
as §1, §2, §3, §4, §5

The test system of data set [3] is Aβ42. Description: In vivo efficacy: brain soluble Aβ42 lowering in non-transgenic animals (ELISA). Details: species or system mouse. The note with it: dose 30 mg/kg oral dosing; brain soluble fraction, 4 h after dose; untreated animals (Ctrl) set at 100. The source says:
(§6) To determine whether acute administration of an Aβ42 lowering agent would reduce Aβ42 levels in vivo, non-transgenic rodents, e.g. mice or rats were used. Animals treated with the Aβ42 lowering agent were examined and compared to those untreated or treated with vehicle and brain levels of soluble Aβ42 and total Aβ were quantitated by standard techniques, for example, using ELISA. Treatment periods varied from hours (h) to days and were adjusted based on the results of the Aβ42 lowering once a time course of onset of effect could be established.
(§7) A typical protocol for measuring Aβ42 lowering in vivo is shown but it is only one of many variations that could be used to optimize the levels of detectable A3. For example, Aβ42 lowering compounds were formulated in 20% of Captisol® (a sulfobutyl ether of β-cyclodextrin) in water or 20% hydroxypropyl 0 cyclodextrin. The Aβ42 lowering agents were administered as a single oral dose or by any acceptable route of administration to overnight fasted animals. After 4 h, the animals were sacrificed and Aβ42 levels were analysed.
(§8) Blood was collected by decapitation and exsanguinations in EDTA-treated collection tubes. […] The left hemisphere was stored at −18° C. for quantitative analysis of test compound levels. […]
(§9) Mouse brains from non-transgenic animals were resuspended in 8 volumes of 0.4% DEA (diethylamine)/50 mM NaCl containing protease inhibitors (Roche-11873580001 or 04693159001) per gram of tissue, e.g. for 0.158 g brain, add 1.264 ml of 0.4% DEA. […] Nine parts of supernatant were neutralized with 1 part 0.5 M Tris-HCl pH 6.8 and used to quantify Aβtotal and Aβ42.
(§10) To quantify the amount of Aβtotal and Aβ42 in the soluble fraction of the brain homogenates, Enzyme-Linked-Immunosorbent-Assays were used. […] Following this incubation and subsequent wash steps the ELISA for Aβ42 quantification was finished by addition of Quanta Blu fluorogenic peroxidase substrate according to the manufacturer's instructions (Pierce Corp., Rockford, Il). A reading was performed after 10 to 15 min (excitation 320 nm/emission 420 nm). […]

The subject of data set [4] is Aβtotal. Put plainly: In vivo efficacy: brain soluble Aβtotal in non-transgenic animals (ELISA). The note with it: dose 30 mg/kg oral dosing; brain soluble fraction, 4 h after dose; untreated animals (Ctrl) set at 100. Details: species or system mouse.
From the text: as §6, §7, §8, §9, §10

Each structure is given as a SMILES string.

In turn, `COc1ccc(N2CCN(c3nc(Nc4ccccc4C)n(C)n3)CC2(C)C)cc1` [Compound 1, 3-[4-(4-methoxyphenyl)-3,3-dimethyl-1-piperazinyl]-1-methyl-N-(2-methylphenyl)-1H-1,2,4-triazol-5-amine] registered a melting point of 156.8 °C. In the data set with Aβ42 [1], half-maximal inhibition (IC50) required 50 nM. In addition, in the data set on Aβtotal [2], the concentration for half-maximal inhibition (IC50) is > 10000 nM. In the data set on Aβ42 [3], the “Aβ42 (% vs Ctrl)_Mean” value was 50 % vs Ctrl. The “Aβtotal (% vs Ctrl)_Mean” value with Aβtotal [4] was found to be 107 % vs Ctrl.
In the case of `COc1ccc(N2CCN(c3nc(Nc4ccc(F)cc4C)n(C)n3)CC2(C)C)cc1` [Compound 6, N-(4-fluoro-2-methylphenyl)-3-[4-(4-methoxyphenyl)-3,3-dimethyl-1-piperazinyl]-1-methyl-1H-1,2,4-triazol-5-amine.1.2HCl. 1.5H2O], the IC50 in the data set on Aβ42 [1] is 50 nM; with Aβtotal [2] it was > 10000 nM. Moreover, the “Aβ42 (% vs Ctrl)_Mean” value with Aβ42 [3] was determined as 45 % vs Ctrl. In addition, the “Aβtotal (% vs Ctrl)_Mean” value in the data set with Aβtotal [4] stood at 109 % vs Ctrl.
For `COc1ccc(N2CCN(c3nc(Nc4cc(C(F)(F)F)ccc4F)n(C)n3)CC2(C)C)cc1` [Compound 14, N-[2-fluoro-5-(trifluoromethyl)phenyl]-3-[4-(4-methoxyphenyl)-3,3-dimethyl-1-piperazinyl]-1-methyl-1H-1,2,4-triazol-5-amine] the same measures were 110 nM, > 10000 nM, 78 % vs Ctrl and 111 % vs Ctrl.
The molecule `Cc1cc(OC2CCN(c3nc(Nc4cc(C(F)(F)F)ccc4F)n(C)n3)CC2)ccn1` [Compound 15, N-[2-fluoro-5-(trifluoromethyl)phenyl]-1-methyl-3-[4-[(2-methyl-4-pyridinyl)oxy]-1-piperidinyl]-1H-1,2,4-triazol-5-amine] had a melting point of 177.4 °C. In the data set on Aβ42 [1], this molecule showed an IC50 of 250 nM. Also, the IC50 in the data set with Aβtotal [2] is > 10000 nM.
For `COc1ccc(N2CCN(c3nc(-c4ccc(F)cc4)n(C)n3)CC2)cc1` [Compound 16, 1-[5-(4-fluorophenyl)-1-methyl-1H-1,2,4-triazol-3-yl]-4-(4-methoxyphenyl)-piperazine] the same measures were 191.6 °C, 4070 nM and > 10000 nM.
